In patent US8426406B2, “Glucocorticoid receptor agonist comprising 2,2,4-trimethyl-6-phenyl-1,2-dihydroquinoline derivatives having substituted oxy group” (Santen Pharmaceutical Co., Ltd., priority 2008, dated 2013):

System: IL-6 production induced by lipopolysaccharide (LPS) in human corneal epithelial cells
Assay: Evaluation test for GR agonist activity: inhibition of LPS-induced IL-6 production in human corneal epithelial cells (HCE-T)
Format: cell-based
Settings: Corneal epithelial cell, 10 μL of 100 μM test compound solution per well, 4 hours incubation, efficacy relative to DEX
Method: In order to evaluate a GR agonist activity of the present compound, the inhibitory effects on the IL-6 production induced by lipopolysaccharide (LPS) in human corneal epithelial cells. IL-6 levels in the conditioned medium were measured using the HTRF human IL-6 Kit (boehringer-Ingelheim, Cat No. 62IL6PEB), and the procedure was carried out according to the protocol attached to the kit. Hereinafter, the specific method will be described.
LPS solution: After LPS was dissolved in phosphate buffer solution (hereinafter referred to as PBS(−)), the resulting solution was diluted with 10% FBS-DMEM/F12 medium, whereby a 1 μg/mL LPS solution was prepared.
After a test compound was dissolved in dimethylsulfoxide (hereinafter referred to as DMSO), the resulting solution was diluted with 10% FBS-DMEM/F12 medium, whereby a 100 μM test compound solution was prepared. A 100 μM DEX solution was prepared by the same method, and the inhibitory ratio of IL-6 production of DEX was evaluated to use for calculating efficacy (% DEX).
Used cell: SV40-immortalized human corneal epithelial cells (HCE-T) (RIKEN)
1) HCE-T cells were harvested, and seeded at 2.0×10^4 cells/0.1 mL/well in a 96-well plate.
2) After incubation overnight, the medium was removed and a 80 μL of new 10% FBS-DMEM/Ham's F12 medium was added into each well.
3) A 10 μL of test compounds solution was added into each well.
4) A 10 μL of LPS solution was added into each well.
5) As a negative control, a 10 μL of 10% FBS-DMEM/Ham's F12 medium was added into each well instead of a test compound solution and a LPS solution.
6) As a positive control, a 10 μL of 10% FBS-DMEM/Ham's F12 medium containing 1% DMSO was added into each well instead of a test compound solution.
7) After 4 hours incubation, supernatants were collected and IL-6 levels in the supernatants were quantitated using the HTRF human IL-6 Kit.
8) The inhibition ratio of IL-6 production (%) was calculated according to the following equation.
The inhibition ratio of IL-6 production (%) was calculated according to the following equation. The inhibition ratio of IL-6 production(%)=100×[1−(IL-6 level in each group−mean value of IL-6 level in negative control)/(mean value of IL-6 level in positive control−mean value of IL-6 level in negative control)](%)
Furthermore, the inhibition ratio of IL-6 production (efficacy (% DEX)) was also calculated according to the following equation. Efficacy(% DEX)=100×{(mean value of IL-6 inhibition in compound-treated group)/(mean value of IL-6 inhibition in DEX-treated group)}(%) (Result and Discussion)

Work on `COc1ccccc1NCc1c(-c2ccc(OC(=O)c3ccccc3SC)cc2OC)ccc2c1C(C)=CC(C)(C)N2` [Compound 1-111] yielded an Emax of 81%.

Compound `COc1ccccc1NCc1c(-c2ccc(OC(=O)c3occc3C)cc2OC)ccc2c1C(C)=CC(C)(C)N2` [Compound 1-114, 6-[2-Methoxy-4-(3-methylfuran-2-ylcarbonyloxy)phenyl]-5-(2-methoxyphenylaminomethyl)-2,2,4-trimethyl-1,2-dihydroquinoline] has an Emax of 87%.

`COc1ccccc1NCc1c(-c2ccc(OC(=O)c3cccnc3OC)cc2OC)ccc2c1C(C)=CC(C)(C)N2` [Compound 1-117, 6-[2-Methoxy-4-(2-methoxypyridin-3-ylcarbonyloxy)phenyl]-5-(2-methoxyphenylaminomethyl)-2,2,4-trimethyl-1,2-dihydroquinoline] showed an Emax of 95%.

In the case of `COc1cc(OC(=O)c2ccncc2)ccc1-c1ccc2c(c1CNc1cc(F)ccc1C)C(C)=CC(C)(C)N2` [Compound 1-119, 5-(5-Fluoro-2-methylphenylaminomethyl)-6-[2-methoxy-4-(pyridin-4-ylcarbonyloxy)phenyl]-2,2,4-trimethyl-1,2-dihydroquinoline], the Emax is reported as 75%.

Compound `COc1cc(OC(=O)c2cccnc2C)ccc1-c1ccc2c(c1CNc1cc(F)ccc1C)C(C)=CC(C)(C)N2` [Compound 1-122, 5-(5-Fluoro-2-methylphenylaminomethyl)-6-[2-methoxy-4-(2-methylpyridin-3-ylcarbonyloxy)phenyl]-2,2,4-trimethyl-1,2-dihydroquinoline] has an Emax of 89%.

`COc1cc(OC(=O)c2cccnc2OC)ccc1-c1ccc2c(c1CNc1cc(F)ccc1C)C(C)=CC(C)(C)N2` [Compound 1-125, 5-(5-Fluoro-2-methylphenylaminomethyl)-6-[2-methoxy-4-(2-methoxypyridin-3-ylcarbonyloxy)phenyl]-2,2,4-trimethyl-1,2-dihydroquinoline] was tested, and the Emax was 81%.

In the case of `COc1cc(OC(=O)c2occc2C)ccc1-c1ccc2c(c1CNc1cc(F)ccc1C)C(C)=CC(C)(C)N2` [Compound 1-126, 5-(5-Fluoro-2-methylphenylaminomethyl)-6-[2-methoxy-4-(3-methylfuran-2-ylcarbonyloxy)phenyl]-2,2,4-trimethyl-1,2-dihydroquinoline], the Emax is reported as 81%.

`COc1cc(OC(=O)c2ccc(C)nc2)ccc1-c1ccc2c(c1COC(=O)c1ccc(C)s1)C(C)=CC(C)(C)N2` [Compound 1-128, 6-[2-Methoxy-4-(6-methylpyridin-3-ylcarbonyloxy)phenyl]-5-(5-methylthiophen-2-ylcarbonyloxymethyl)-2,2,4-trimethyl-1,2-dihydroquinoline] gave an Emax of 79%.

`COc1cc(OC(=O)c2cccnc2)ccc1-c1ccc2c(c1COC(=O)c1ccc(C)cc1)C(C)=CC(C)(C)N2` [Compound 1-133, 5-(4-Methylbenzoyloxymethyl)-6-[2-methoxy-4-(pyridin-3-ylcarbonyloxy)phenyl]-2,2,4-trimethyl-1,2-dihydroquinoline] was tested, and the Emax was 74%.

`COc1cc(OC(=O)c2ccc(Cl)cc2)ccc1-c1ccc2c(c1COC(=O)c1ccc(C)s1)C(C)=CC(C)(C)N2` [Compound 1-141, 6-[4-(4-Chlorobenzoyloxy)-2-methoxyphenyl]-5-(5-methylthiophen-2-ylcarbonyloxymethyl)-2,2,4-trimethyl-1,2-dihydroquinoline] gave an Emax of 78%.

`COc1cc(OC(=O)c2ccccc2)ccc1-c1ccc2c(c1COC(=O)c1ccc(C)s1)C(C)=CC(C)(C)N2` [Compound 1-142, 6-(4-Benzoyloxy-2-methoxyphenyl)-5-(5-methylthiophen-2-ylcarbonyloxymethyl)-2,2,4-trimethyl-1,2-dihydroquinoline] showed an Emax of 97%.

`COc1cc(OC(=O)c2ccccc2C)ccc1-c1ccc2c(c1COC(=O)c1ccc(C)s1)C(C)=CC(C)(C)N2` [Compound 1-143, 6-[2-Methoxy-4-(2-methylbenzoyloxy)phenyl]-5-(5-methylthiophen-2-ylcarbonyloxymethyl)-2,2,4-trimethyl-1,2-dihydroquinoline] gave an Emax of 96%.
